In PubChem BioAssay AID248 (DTP/NCI, 2004):
“And” between values parts separate entries of the source, which are not always exact repeats. Equal values may be shown once. Inconclusive results and toxic doses are left out. No stated cut-off is given here; in the data, active means T/C of 150% or more; inactive means T/C below 125%.

Test system: L1210 leukemia ip in BDF1 mice, survival T/C
Experiment: NCI In Vivo Anticancer Drug Screen. Data for tumor model L1210 Leukemia (intraperitoneal) in B6D2F1 (BDF1) mice
Conditions: endpoint: mean survival time, higher = longer survival
Summary of the method: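 Each compound was tested against a transplantable tumor grown in mice. The endpoint was survival, with treated animals benchmarked against vehicle controls as a simple ratio.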

[1] = dose: 100.0 mg/kg/injection, schedule: Q01DX001 (ip), vehicle: Klucel (hydroxypropylcellulose) (HPC)
[2] = dose: 200.0 mg/kg/injection, schedule: Q01DX001 (ip), vehicle: Klucel (hydroxypropylcellulose) (HPC)
[3] = dose: 400.0 mg/kg/injection, schedule: Q01DX001 (ip), vehicle: Klucel (hydroxypropylcellulose) (HPC)
[4] = dose: 100.0 mg/kg/injection, schedule: Q01DX001 (ip), vehicle: saline
[5] = dose: 200.0 mg/kg/injection, schedule: Q01DX001 (ip), vehicle: saline
[6] = dose: 400.0 mg/kg/injection, schedule: Q01DX001 (ip), vehicle: saline
[7] = dose: 100.0 mg/kg/injection, schedule: Q01DX009 (ip), vehicle: saline with Tween-80
[8] = dose: 200.0 mg/kg/injection, schedule: Q01DX009 (ip), vehicle: saline with Tween-80
[9] = dose: 100.0 mg/kg/injection, schedule: Q01DX009 (ip), vehicle: Klucel (hydroxypropylcellulose) (HPC)
[10] = dose: 100.0 mg/kg/injection, schedule: Q04DX003 (ip), vehicle: Klucel (hydroxypropylcellulose) (HPC)
[11] = dose: 200.0 mg/kg/injection, schedule: Q01DX009 (ip), vehicle: Klucel (hydroxypropylcellulose) (HPC)
[12] = dose: 200.0 mg/kg/injection, schedule: Q04DX003 (ip), vehicle: Klucel (hydroxypropylcellulose) (HPC)

Measured: T/C

Brc1cccc[n+]1-c1cccc(-c2cccc(-[n+]3ccccc3Br)c2)c1
inactive: dose: 9.38 mg/kg/injection, schedule: Q01DX001 (ip), vehicle: other 100 % of control | dose: 18.75 mg/kg/injection, schedule: Q01DX001 (ip), vehicle: other 101 % of control

CCCCCCCCCCCCSCCCCSCCCCCCCCCCCC
inactive: [1] 93 % of control | [2] 89 % of control | [3] 91 % of control

CCCCCC(=O)C#Cc1ccccc1
inactive: dose: 6.25 mg/kg/injection, schedule: Q01DX009 (ip), vehicle: other 90 % of control | dose: 12.5 mg/kg/injection, schedule: Q01DX009 (ip), vehicle: other 95 % of control | dose: 25.0 mg/kg/injection, schedule: Q01DX009 (ip), vehicle: other 94 % of control and 96 % of control | dose: 50.0 mg/kg/injection, schedule: Q01DX009 (ip), vehicle: other 91 % of control | dose: 100.0 mg/kg/injection, schedule: Q01DX009 (ip), vehicle: other 93 % of control and 86 % of control

BrCCOC1CCCCO1 (configuration not stated)
inactive: dose: 25.0 mg/kg/injection, schedule: Q01DX005 (ip), vehicle: saline 105 % of control | dose: 50.0 mg/kg/injection, schedule: Q01DX005 (ip), vehicle: saline 117 % of control | dose: 100.0 mg/kg/injection, schedule: Q01DX005 (ip), vehicle: saline 107 % of control | dose: 200.0 mg/kg/injection, schedule: Q01DX005 (ip), vehicle: saline 105 % of control

Clc1cc(Cl)c2nc(-c3ccc(Cl)c(Cl)c3)cc(C3CO3)c2c1 (configuration not stated)
inactive: [4] 94 % of control | [5] 105 % of control | [6] 100 % of control

CC1(C)C=CS1(=O)=O
inactive: dose: 50.0 mg/kg/injection, schedule: Q01DX009 (ip), vehicle: saline with Tween-80 98 % of control | [7] 102 % of control | [8] 95 % of control

O=[N+]([O-])c1ccc(N/N=C/CCc2ccccc2O)c([N+](=O)[O-])c1
inactive: dose: 50.0 mg/kg/injection, schedule: Q01DX001 (ip), vehicle: saline 112 % of control | [4] 98 % of control | [5] 93 % of control | [6] 98 % of control

Cn1c(=O)c2c(nc(OC3CCCCCC3)n2C)n(C)c1=O
inactive: dose: 50.0 mg/kg/injection, schedule: Q01DX001 (ip), vehicle: other 101 % of control | dose: 100.0 mg/kg/injection, schedule: Q01DX001 (ip), vehicle: other 93 % of control | dose: 200.0 mg/kg/injection, schedule: Q01DX001 (ip), vehicle: other 98 % of control

C[N+]1(C)C2CC(O)CC1C1OC12 (configuration not stated)
inactive: dose: 1.2 mg/kg/injection, schedule: Q01DX001 (ip), vehicle: saline 95 % of control | dose: 2.5 mg/kg/injection, schedule: Q01DX001 (ip), vehicle: saline 97 % of control | dose: 5.0 mg/kg/injection, schedule: Q01DX001 (ip), vehicle: saline 100 % of control

COC(=O)N1C(N2CCCC2=O)C(C)(C)S1(=O)=O (configuration not stated)
inactive: dose: 75.0 mg/kg/injection, schedule: Q04DX003 (ip), vehicle: Klucel (hydroxypropylcellulose) (HPC) 102 % of control | dose: 150.0 mg/kg/injection, schedule: Q04DX003 (ip), vehicle: Klucel (hydroxypropylcellulose) (HPC) 94 % of control | dose: 300.0 mg/kg/injection, schedule: Q04DX003 (ip), vehicle: Klucel (hydroxypropylcellulose) (HPC) 89 % of control

CCOC(=O)c1ccc(NCc2cnc(N)nc2N)cc1
inactive: [4] 97 % of control | [5] 90 % of control | [6] 90 % of control

Cc1cc2ccccn2c1C(=O)c1ccccc1
inactive: dose: 100.0 mg/kg/injection, schedule: Q01DX001 (ip), vehicle: carboxymethylcellulose (CMC) 107 % of control | dose: 100.0 mg/kg/injection, schedule: Q01DX009 (ip), vehicle: carboxymethylcellulose (CMC) 106 % of control | dose: 100.0 mg/kg/injection, schedule: Q04DX002 (ip), vehicle: carboxymethylcellulose (CMC) 98 % of control and 102 % of control | dose: 100.0 mg/kg/injection, schedule: Q04DX003 (ip), vehicle: carboxymethylcellulose (CMC) 102 % of control | dose: 200.0 mg/kg/injection, schedule: Q01DX001 (ip), vehicle: carboxymethylcellulose (CMC) 98 % of control | dose: 200.0 mg/kg/injection, schedule: Q01DX009 (ip), vehicle: carboxymethylcellulose (CMC) 96 % of control and 106 % of control | dose: 200.0 mg/kg/injection, schedule: Q04DX002 (ip), vehicle: carboxymethylcellulose (CMC) 94 % of control and 107 % of control | dose: 200.0 mg/kg/injection, schedule: Q04DX003 (ip), vehicle: carboxymethylcellulose (CMC) 102 % of control | dose: 400.0 mg/kg/injection, schedule: Q01DX001 (ip), vehicle: carboxymethylcellulose (CMC) 98 % of control | dose: 400.0 mg/kg/injection, schedule: Q01DX009 (ip), vehicle: carboxymethylcellulose (CMC) 95 % of control and 102 % of control | dose: 400.0 mg/kg/injection, schedule: Q04DX002 (ip), vehicle: carboxymethylcellulose (CMC) 93 % of control and 102 % of control | dose: 400.0 mg/kg/injection, schedule: Q04DX003 (ip), vehicle: carboxymethylcellulose (CMC) 102 % of control

O=C(Nc1ccc(O)cc1)OCc1ccccc1
inactive: dose: 45.0 mg/kg/injection, schedule: Q04DX003 (ip), vehicle: Klucel (hydroxypropylcellulose) (HPC) 105 % of control | dose: 50.0 mg/kg/injection, schedule: Q01DX009 (ip), vehicle: Klucel (hydroxypropylcellulose) (HPC) 102 % of control | dose: 50.0 mg/kg/injection, schedule: Q04DX003 (ip), vehicle: Klucel (hydroxypropylcellulose) (HPC) 91 % of control | dose: 65.0 mg/kg/injection, schedule: Q04DX003 (ip), vehicle: Klucel (hydroxypropylcellulose) (HPC) 101 % of control | [1] 109 % of control | [9] 104 % of control | [10] 95 % of control | [2] 106 % of control | [11] 96 % of control | [12] 105 % of control and 106 % of control | [3] 97 % of control | dose: 400.0 mg/kg/injection, schedule: Q01DX009 (ip), vehicle: Klucel (hydroxypropylcellulose) (HPC) 94 % of control | dose: 400.0 mg/kg/injection, schedule: Q04DX003 (ip), vehicle: Klucel (hydroxypropylcellulose) (HPC) 98 % of control

CC1=CC(=O)N(N)C1=O
inactive: [7] 102 % of control | dose: 100.0 mg/kg/injection, schedule: Q04DX003 (ip), vehicle: saline with Tween-80 98 % of control | [8] 104 % of control | dose: 200.0 mg/kg/injection, schedule: Q04DX003 (ip), vehicle: saline with Tween-80 100 % of control | dose: 400.0 mg/kg/injection, schedule: Q01DX009 (ip), vehicle: saline with Tween-80 100 % of control | dose: 400.0 mg/kg/injection, schedule: Q04DX003 (ip), vehicle: saline with Tween-80 96 % of control

Cc1cccc(NC(=O)CCl)c1C
inactive: [9] 100 % of control | [10] 100 % of control | [11] 87 % of control | [12] 100 % of control

CCCCCCCCCCCCSCCCN
inactive: dose: 12.5 mg/kg/injection, schedule: Q04DX003 (ip), vehicle: saline with Tween-80 96 % of control | dose: 25.0 mg/kg/injection, schedule: Q04DX003 (ip), vehicle: saline with Tween-80 93 % of control | dose: 50.0 mg/kg/injection, schedule: Q04DX003 (ip), vehicle: saline with Tween-80 96 % of control

C=C(Br)CNC(=O)OCC
inactive: dose: 50.0 mg/kg/injection, schedule: Q04DX003 (ip), vehicle: saline 96 % of control | dose: 100.0 mg/kg/injection, schedule: Q04DX003 (ip), vehicle: saline 115 % of control | dose: 200.0 mg/kg/injection, schedule: Q04DX003 (ip), vehicle: saline 107 % of control
